According to US9255090B2, “Heterocyclyl derivatives and their use as prostaglandin D2 receptor modulators” (Actelion Pharmaceuticals Ltd., priority 2012, dated 2016):

Key:
[1] = tested on: eosinophils; assay: Eosinophil shape change assay with human plasma; assay type: cell-based; settings: human plasma (50%), PGD2 100 nM activation, antagonistic activity
Description: Eosinophil Shape Change Assay with Human Plasma
After obtaining informed consent, blood samples were drawn by venipuncture according to the protocol approved by the ethics committee of Basel, Switzerland. Polymorphonuclear leukocytes (containing eosinophils, basophils and neutrophils) were isolated using the Polymorphprep™ method (Axis-Shield). […] The polymorphonuclear cell fraction was harvested and depleted for erythrocytes by hypotonic saline lysis.
The polymorphonuclear cells were resuspended in assay buffer (1×PBS with Ca^2+/Mg^2+ supplemented with 0.1% BSA, 10 mM HEPES, and 10 mM Glucose, pH 7.4) at 5×10^6 cells/ml and stained with anti-CD49d-APC ((APC=Allophycocyanin) for 1 hour at RT. Test compounds, at various concentrations, were preincubated 10 min in human plasma (anticoagulated with a thrombin inhibitor). Then, human plasma was added to the polymorphonuclear cells to 50% of final assay volume with polymorphonuclear cells at 4×10^6 cells/ml. After incubation for 10 minutes at 37° C., the polymorphonuclear cells were activated for 5 min at 37° C. by addition of PGD2 at 100 nM final concentration. Activation was stopped by addition of 0.5 ml paraformaldehyde (1%).
Immediately after fixation with paraformaldehyde, the samples were analyzed by FACSCanto flow cytometer (BD Biosciences) and target cells were identified by their forward-scatter (FSC) and side-scatter (SSC) characteristics. Eosinophils were identified by the anti-CD49d-APC signal and their characteristic side-scatter (SSC) profile. Shape change responses, indicative of eosinophil activation, were quantified as the percent of cells with an increased forward-scatter.

[2] = biological target: hCRTH2 receptor (Homo sapiens (Human), UniProt Q9Y5Y4); assay: hCRTH2 receptor membranes radioligand (3H-PGD2) displacement assay; assay type: binding; settings: 3H-PGD2 radioligand displacement, HEK293-hCRTH2 membranes
Chain of hCRTH2 receptor (Q9Y5Y4 whole entry): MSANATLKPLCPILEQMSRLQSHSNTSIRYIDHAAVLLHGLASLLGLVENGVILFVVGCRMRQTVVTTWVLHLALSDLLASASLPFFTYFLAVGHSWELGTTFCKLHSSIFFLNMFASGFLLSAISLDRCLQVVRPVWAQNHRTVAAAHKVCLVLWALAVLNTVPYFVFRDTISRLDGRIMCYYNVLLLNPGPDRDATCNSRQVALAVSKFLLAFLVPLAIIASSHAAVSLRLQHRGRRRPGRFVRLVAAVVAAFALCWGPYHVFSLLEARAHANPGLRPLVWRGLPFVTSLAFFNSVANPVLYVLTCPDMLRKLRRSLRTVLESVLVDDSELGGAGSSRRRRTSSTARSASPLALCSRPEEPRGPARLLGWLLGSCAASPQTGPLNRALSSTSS
In short: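 Compound was first mixed with buffer, then 3H-PGD2 was added at 2.5 nM, and the reaction was started with hCRTH2 membranes from HEK293 cells at 20 μg/well. After 90 min at room temperature, mixtures were filtered and washed with ice-cold buffer, and retained radioactivity was counted.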

Compound | IC50 ([1]; Homo sapiens, Eosinophil) | IC50 [2] | IC50 [1]
COc1ccc(CC(=O)O)cc1-c1ccc(F)c2c1CN(C(=O)[C@@H]1C[C@H]1c1ccc(F)cc1)CC2 (racemic) [Example 1, (±)-(3-{5-Fluoro-2-[trans-2-(4-fluoro-phenyl)-cyclopropanecarbonyl]-1,2,3,4-tetrahydro-isoquinolin-8-yl}-4-methoxy-phenyl)-acetic acid] | 8 nM | 1.99 nM | –
COc1ccc(CC(=O)O)cc1-c1ccc(F)c2c1CN(C(=O)[C@@H]1C[C@H]1c1ccccc1F)CC2 (racemic) [Example 5, (±)-(3-{5-Fluoro-2-[trans-2-(2-fluoro-phenyl)-cyclopropanecarbonyl]-1,2,3,4-tetrahydro-isoquinolin-8-yl}-4-methoxy-phenyl)-acetic acid] | 12 nM | 3.64 nM | –
COc1ccc(CC(=O)O)cc1-c1ccc(F)c2c1CCN(C(=O)[C@@H]1C[C@H]1c1ccccc1)CC2 (racemic) [Example 36, (±)-{3-[9-Fluoro-3-(trans-2-phenyl-cyclopropanecarbonyl)-2,3,4,5-tetrahydro-1H-benzo[d]azepin-6-yl]-4-methoxy-phenyl}-acetic acid] | > 1000 nM | 19.9 nM | –
COc1ccc(CC(=O)O)cc1-c1ccc(F)c2c1CN(C(=O)[C@@H]1C[C@H]1c1ccccc1)CC2 (racemic) [Example 60, (±)-{3-[5-Fluoro-2-(trans-2-phenyl-cyclopropanecarbonyl)-1,2,3,4-tetrahydro-isoquinolin-8-yl]-4-methoxy-phenyl}-acetic acid] | 13 nM | 2.64 nM | –
COc1ccc(CC(=O)O)cc1-c1ccc(C(F)(F)F)c2c1CN(C(=O)[C@@H]1C[C@H]1c1ccccc1)CC2 (racemic) [Example 83, (±)-{4-Methoxy-3-[2-(trans-2-phenyl-cyclopropanecarbonyl)-5-trifluoromethyl-1,2,3,4-tetrahydro-isoquinolin-8-yl]-phenyl}-acetic acid] | > 1000 nM | 26.1 nM | –
CCOc1ccc(CC(=O)O)cc1-c1ccc(F)c2c1CN(C(=O)CC1OCCc3ccccc31)CC2 (racemic) [Example 224] | 10 nM | 8.2 nM | –
CCOc1ccc(CC(=O)O)cc1-c1ccc(F)c2c1CN(C(=O)CC1CCOc3ccccc31)CC2 (racemic) [Example 226] | 43 nM | 12.9 nM | –
CCOc1cc(CC(=O)O)ccc1-c1ccc(F)c2c1CN(C(=O)CC1OCCc3ccccc31)CC2 (racemic) [Example 229] | 15 nM | 0.7 nM | –
CCOc1cc(CC(=O)O)ccc1-c1ccc(F)c2c1CN(C(=O)CC1COc3ccccc31)CC2 (racemic) [Example 235] | 20 nM | 0.3 nM | –
CCOc1cc(CC(=O)O)ccc1-c1ccc(F)c2c1CN(C(=O)CC1CCOc3ccccc31)CC2 (racemic) [Example 236] | 12 nM | 0.8 nM | –
COc1ccc(CC(=O)O)cc1-c1ccc(F)c2c1CN(C(=O)CC1CCOc3cc(F)ccc31)CC2 (racemic) [Example 243] | 92 nM | 20.6 nM | –
COc1ccc(CC(=O)O)cc1-c1ccc(F)c2c1CN(C(=O)CN(C)C(c1ccccc1)c1ccc(Cl)cc1)CC2 (racemic) [Example 253] | 399 nM | 10.6 nM | –
COc1ccc(CC(=O)O)cc1-c1ccc(F)c2c1CN(C(=O)CC1OCCc3ccccc31)CC2 (racemic) [Example 257] | 35 nM | 2.2 nM | –
COc1ccc(CC(=O)O)cc1-c1ccc(F)c2c1CN(C(=O)CC1CCc3ccccc3C1)CC2 (racemic) [Example 260] | 56 nM | 1.4 nM | –
COc1ccc(CC(=O)O)cc1-c1ccc(F)c2c1CN(C(=O)CC1CCc3ccccc31)CC2 (racemic) [Example 261] | 86 nM | 3.1 nM | –
COc1ccc(CC(=O)O)cc1-c1ccc(F)c2c1CN(C(=O)CC1CCOc3ccccc31)CC2 (racemic) [Example 262] | 66 nM | 8.4 nM | –
COc1ccc(CC(=O)O)cc1-c1ccc(F)c2c1CN(C(=O)CC1CCCc3ccccc31)CC2 (racemic) [Example 263] | 64 nM | 4.9 nM | –
COc1ccc(CC(=O)O)cc1-c1ccc(F)c2c1CN(C(=O)CC(C)c1ccccn1)CC2 (racemic) [Example 265] | 98 nM | 7.8 nM | –
COc1ccc(CC(=O)O)cc1-c1ccc(F)c2c1CN(C(=O)CC1COCc3ccccc31)CC2 (racemic) [Example 271] | 91 nM | 22.3 nM | –

Compound | IC50 ([1]; Homo sapiens, Eosinophil) | IC50 [2] | IC50 [1]
CCOc1ccc(CC(=O)O)cc1-c1ccc(F)c2c1CN(C(=O)CC(C)c1ccc(F)cc1)CC2 (racemic) [Example 278] | 19 nM | 3.9 nM | –
CCOc1ccc(CC(=O)O)cc1-c1ccc(F)c2c1CN(C(=O)CC(C)c1cccc(F)c1)CC2 (racemic) [Example 279] | 45 nM | 6.9 nM | –
CCOc1ccc(CC(=O)O)cc1-c1ccc(F)c2c1CN(C(=O)CC(C)c1cccc(C)n1)CC2 (racemic) [Example 328] | 15 nM | 1.8 nM | –
CCOc1ccc(CC(=O)O)cc1-c1ccc(F)c2c1CN(C(=O)[C@@H]1C[C@H]1c1ccccn1)CC2 (racemic) [Example 330] | 15 nM | 0.6 nM | –
CCOc1ccc(CC(=O)O)cc1-c1ccc(F)c2c1CN(C(=O)CC1COc3ccccc3C1)CC2 (racemic) [Example 332] | 15 nM | 11.8 nM | –
CCOc1ccc(CC(=O)O)cc1-c1ccc(F)c2c1CN(C(=O)CC1CCOc3cc(F)ccc31)CC2 (racemic) [Example 335] | 26 nM | 0.9 nM | –
CCOc1cc(CC(=O)O)ccc1-c1ccc(F)c2c1CN(C(=O)CC(C)c1ccccn1)CC2 (racemic) [Example 344] | 51 nM | 0.9 nM | –
CCOc1ccc(CC(=O)O)cc1-c1ccc(F)c2c1CN(C(=O)CC(C)c1ccccn1)CC2 (racemic) [Example 345] | 31 nM | 4.8 nM | –
CCOc1ccc(CC(=O)O)cc1-c1ccc(F)c2c1CN(C(=O)CC1CCCc3cccnc31)CC2 (racemic) [Example 350] | 9 nM | 8.2 nM | –
CCOc1ccc(CC(=O)O)cc1-c1ccc(F)c2c1CN(C(=O)C(C)Cc1ccccn1)CC2 (racemic) [Example 351] | 26 nM | 3.1 nM | –
CCOc1cc(CC(=O)O)ccc1-c1ccc(F)c2c1CN(C(=O)C(C)Cc1ccccn1)CC2 (racemic) [Example 352] | 103 nM | 8.1 nM | –
COc1cc(CC(=O)O)ccc1-c1ccc(F)c2c1CN(C(=O)CC1CCc3ccccc31)CC2 (racemic) [Example 360] | 30 nM | 6.1 nM | –
O=C(O)Cc1ccc(OC(F)(F)F)c(-c2ccc(F)c3c2CN(C(=O)OCc2ccccc2)CC3)c1 [Example 21, 8-(5-Carboxymethyl-2-trifluoromethoxy-phenyl)-5-fluoro-3,4-dihydro-1H-isoquinoline-2-carboxylic acid benzyl ester] | 64 nM | 2.19 nM | –
CC(C)Oc1ccc(CC(=O)O)cc1-c1ccc(F)c2c1CN(C(=O)OCc1ccccc1)CC2 [Example 22, 8-(5-Carboxymethyl-2-isopropoxy-phenyl)-5-fluoro-3,4-dihydro-1H-isoquinoline-2-carboxylic acid benzyl ester] | 38 nM | 4.72 nM | –
COc1cc(CC(=O)O)ccc1-c1ccc(F)c2c1CN(C(=O)CC1CCOc3ccccc31)CC2 (centres unmarked) [Example 201, {4-[2-(2-Chroman-4-yl-acetyl)-5-fluoro-1,2,3,4-tetrahydro-isoquinolin-8-yl]-3-methoxy-phenyl}-acetic acid] | – | – | 31 nM
CCOc1ccc(CC(=O)O)cc1-c1ccc(F)c2c1CN(C(=O)CC1COc3ccccc31)CC2 (centres unmarked) [Example 207, {3-[2-(2-2,3-Dihydro-benzofuran-3-yl-acetyl)-5-fluoro-1,2,3,4-tetrahydro-isoquinolin-8-yl]-4-ethoxy-phenyl}-acetic acid] | – | – | 15 nM
CCOc1ccc(CC(=O)O)cc1-c1ccc(F)c2c1CN(C(=O)CC1COc3ccccc31)CC2 (centres unmarked) [Example 208, {3-[2-(2-2,3-Dihydro-benzofuran-3-yl-acetyl)-5-fluoro-1,2,3,4-tetrahydro-isoquinolin-8-yl]-4-ethoxy-phenyl}-acetic acid] | – | – | 42 nM
CCOc1ccc(CC(=O)O)cc1-c1ccc(F)c2c1CN(C(=O)CC1COCc3ccccc31)CC2 (centres unmarked) [Example 209, {4-Ethoxy-3-[5-fluoro-2-(2-isochroman-4-yl-acetyl)-1,2,3,4-tetrahydro-isoquinolin-8-yl]-phenyl}-acetic acid] | 13 nM | – | –
CCOc1ccc(CC(=O)O)cc1-c1ccc(F)c2c1CN(C(=O)CC1COCc3ccccc31)CC2 (centres unmarked) [Example 210, {4-Ethoxy-3-[5-fluoro-2-(2-isochroman-4-yl-acetyl)-1,2,3,4-tetrahydro-isoquinolin-8-yl]-phenyl}-acetic acid] | – | – | 11 nM
